Data taken from article PMC3877906, “Polypeptide Modulators of TRPV1 Produce Analgesia without Hyperthermia” (Marine Drugs, 2013).

Legend:
CD-1 mice [1] = assay: core body temperature (rectal measuring); format: in vivo, mouse; conditions: for core body temperature, in words: rectal measuring, mice, vs saline
Description: Admittedly, hyperthermia is considered a critical side effect of TRPV1 antagonists, so we assessed the effect of the polypeptides on body temperature. Polypeptides were administered intravenously at doses 0.1 mg/kg and 0.5 mg/kg, and rectal temperature was monitored (Figure 5a,b).
(§1) All experiments were performed in accordance with the recommendations in the “Principles of Laboratory Animal Care” and after approval by the Animal Care and Use Committee of the Branch of the IBCh RAS (Pushchino, Russia). Adult male CD-1 mice (Animal Breeding Facility Branch of Shemyakin-Ovchinnikov Institute of Bioorganic Chemistry, Russian Academy of Sciences, Pushchino, Russia) weighing 20–25 g were used. Animals were allowed to acclimate in the laboratory for at least five days. Mice were housed at room temperature (23 ± 2 °C) on a 12 h light–dark cycle with food and water available ad libitum. Polypeptides or vehicle was administered intravenously 15 min before testing.
(§2) The significance of the data was determined by analysis of variance (ANOVA) followed by Tukey’s test. Data are presented as mean ± S.E.
The MLT1404 Rectal Temperature Probe and Chart Power Lab (ADInstruments Inc., Colorado Springs, CO, USA) was used to record body temperature. During recording, the animals were placed in a MLA5018 Rodent Restrainer (ADInstruments Inc., Colorado Springs, CO, USA). The adaptation period was 20 min. Core body temperature was recorded every minute for 20 min before and 100 min after test compound administration. AMG9810 was dissolved in DMSO and was injected intraperitoneally.

TRPV1 [2] = assay: Ca^2+ imaging, capsaicin responses of TRPV1-positive HEK-293 cells; format: cell-based, rat; conditions: 100 nM
Description: (§3) HEK-293 cells were cultured in Dulbecco’s modified Eagle’s medium (DMEM) (Life Technologies, Grand Island, NY, USA) containing 10% (vol/vol) fetal bovine serum (Thermo Fisher Scientific, Palm Beach, FL, USA), glutamine (1%) and the antibiotic gentamicin (100 μg/mL) (Life Technologies, Grand Island, NY, USA). The pIRES2-EGFP plasmid harboring rat TRPV1 cDNA was transiently transfected into HEK-293 cells by replacing the growth medium in each well with a transfection mixture, containing 1.6 μg of DNA and 4 μL of Lipofectamine (Life Technologies, Grand Island, NY, USA) in 1 mL of serum-free DMEM. After incubating for 6 h, the transfection mixture was replaced with normal culture medium. Cells were assayed within 48–96 h after transfection.
All recordings were performed at room temperature.

TRPV1 [3] = format: cell-based, rat
Description: Figure 2 Effects of APHC3 on recombinant TRPV1 expressed in HEK-293 cells. (a) Resting current recorded from a TRPV1-positive cell held at −30 mV. […] Straight lines above the recording indicate application of APHC3 (Long line) and capsaicin (Short lines). The cells were stimulated and rinsed by rapid switching of the bath solution between the control solution and solutions containing the indicated compound. (b) Capsaicin responses in control and in the presence of the 300 nM APHC3 peptide. In each case, the control response was calculated as an average of two acid responses recorded just prior to peptide application. Averaged responses recorded in the presence of APHC3 were normalized to averaged control responses. Those are presented as the mean ± s.d. (n = 4). […] (c, d) Cell responses to the acidification of the bath solution from pH 7.4 to pH 5.5 in control and in the presence of the APHC3 applied at different concentrations as indicated. The experimental traces in (c) and in (d, upper trace) illustrate representative responses of EGFP/TRPV1-positive cells. The bottom trace in (d) represents responses of an EGFP/TRPV1-negative cell assayed simultaneously. (e) Acid responses recorded in the presence of APHC3 (90, 160 and 240 nM) normalized to a control response. The data are presented as the mean ± s.d. (n = 5–10). […] In each case, the control response was calculated as an average of the two acid responses recorded just prior to peptide application. The average of the two acid responses recorded after peptide application was calculated and normalized to the control response. Experimental traces in (c, d) were obtained from three different cells. The changes in bath solution pH (continuous lines) and APHC3 applications (thick straight lines) are shown above the fluorescence traces. Cells were stimulated and rinsed by a rapid replacement of the control bath solution with modified bath solution at pH 5.5 with or without APHC3.
as §3
Ion currents were recorded using an Axopatch 200A amplifier, with a DigiData 1322A interface, and pClamp8 software (Molecular Devices, Downingtown, PA, USA). External solutions were delivered by a gravity-driven perfusion system at a rate of 0.1 mL/s. Generally, the whole-cell patch clamp approach was used with recording pipettes containing (mM): 140 CsCl, 1 MgATP, 10 BAPTA, 10 HEPES-CsOH (pH 7.2). The basic bath solution included the following (mM): 140 NaCl, 5 KCl, 1 MgCl2, 1 CaCl2, 10 HEPES-NaOH (pH 7.4).

[4] = stated as background; cited from earlier work
From the text: TRPV1 participates in thermoregulation, and almost all its known agonists and antagonists change core body temperature. […] The influence of antagonists on core body temperature is more complex. Antagonists that interact with the intracellular capsaicin-binding pocket of TRPV1 elicit a hyperthermic effect if they are able to inhibit pH-induced TRPV1 currents.

CD-1 mice [5] = assay: hot plate test; format: in vivo, mouse; conditions: 0.1 and 1 mg/kg; 55 °C
Description: The hot plate test is a most simple for TRPV1 inhibitor characterization since TRPV1 play significant role in temperature sensation. Effect of APHC1 and APHC3 on thermal nociception at dose 0.1 mg/kg after intramuscular, intraperitoneal and intravenous administration was measured before. […] Here we assessed changes in thermal nociception to a noxious thermal stimuli elicited by different doses of APHC1 and APHC3 to determine minimal effective dose. […] Both polypeptides reached maximal effect at 0.1 mg/kg.
as §1, §2
Sensitivity to a thermal stimulus was determined by hind paw withdrawal or licking latency using a Hot-Plate Analgesia Meter (Columbus Instruments, Columbus, OH, USA) at 55 °C.

mice = conditions: ref [22],[23]; cited from earlier work
From the text: (§4) Several polypeptide modulators of TRPV1 that interact with the extracellular part of the receptor have been reported. […] The structural homology of APHCs to these proteins is minimal so both polypeptides presented structural distinct class of TRPV1 inhibitors.

TRPV1 [6] = conditions: ref [22],[23]; cited from earlier work
From the text: as §4

[7] = molecular target: Transient receptor potential vanilloid 1 receptor (TRPV1) (rat) (UniProt O35433)
Sequence of UniProt O35433 (O35433 whole entry): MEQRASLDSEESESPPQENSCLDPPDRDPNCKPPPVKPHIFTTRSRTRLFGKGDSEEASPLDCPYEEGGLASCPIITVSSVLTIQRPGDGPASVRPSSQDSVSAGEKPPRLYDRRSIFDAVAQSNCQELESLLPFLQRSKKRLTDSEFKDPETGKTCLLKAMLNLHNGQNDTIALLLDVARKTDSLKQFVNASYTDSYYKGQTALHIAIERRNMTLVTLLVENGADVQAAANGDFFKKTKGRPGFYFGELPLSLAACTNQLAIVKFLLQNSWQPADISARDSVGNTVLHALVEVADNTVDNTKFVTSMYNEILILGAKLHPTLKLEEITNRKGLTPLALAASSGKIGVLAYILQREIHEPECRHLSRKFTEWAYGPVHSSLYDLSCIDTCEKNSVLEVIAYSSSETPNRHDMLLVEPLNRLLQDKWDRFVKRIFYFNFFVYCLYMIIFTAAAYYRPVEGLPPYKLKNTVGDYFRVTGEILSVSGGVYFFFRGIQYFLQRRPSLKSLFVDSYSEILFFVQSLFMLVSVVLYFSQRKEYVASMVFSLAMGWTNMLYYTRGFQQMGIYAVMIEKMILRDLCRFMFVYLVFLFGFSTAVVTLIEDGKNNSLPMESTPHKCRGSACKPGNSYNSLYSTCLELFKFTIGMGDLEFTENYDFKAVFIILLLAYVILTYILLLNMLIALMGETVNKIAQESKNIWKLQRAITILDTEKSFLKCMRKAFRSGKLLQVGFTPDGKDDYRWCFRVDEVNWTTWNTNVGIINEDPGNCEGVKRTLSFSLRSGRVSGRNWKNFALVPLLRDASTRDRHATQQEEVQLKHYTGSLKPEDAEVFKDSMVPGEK

With `CC(C)(C)c1ccc(/C=C/C(=O)Nc2ccc3c(c2)OCCO3)cc1` [AMG9810, reference compound] the “increase in body temperature” value (CD-1 mice [1]; 30 mg/kg i.p., vehicle 10% DMSO, significant, n = 7) was 1.6 °C and the “core body temperature, in words” value (CD-1 mice [1]) was “produced hyperthermic effect”.

For `COc1cc(CNC(=O)CCCC/C=C/C(C)C)ccc1O` [capsaicin], the “capsaicin-elicited Ca^2+ responses” value (TRPV1 [2]) is given as “elicited marked Ca^2+ responses”, the capsaicin-elicited currents (TRPV1 [3]) is given as “elicited strong inward currents in all examined TRPV1-positive cells” and the body temperature [4] is given as “significant decrease in body temperature”.

With aprotinin [reference compound] the “increase in core body temperature” value (CD-1 mice [1]; 0.1 mg/kg, not statistically significant vs saline, n = 7) was 0.4–0.5 °C, the “core body temperature, in words” value (CD-1 mice [1]) was “did not change or modestly increase core body temperature” and the “behavioral response to thermal stimuli” value (CD-1 mice [5]) was “did not change behavioral response to thermal stimuli”.

B1: DkTx: spider's polypeptide that activates TRPV1 (protein, UniProt P0CH43 1-79, looked up)
Tau-theraphotoxin-Hs1a: DCAKEGEVCSWGKKCCDLDNFYCPMEFIPHCKKYKPYVPVTTNCAKEGEVCGWGSKCCHGLDCPLAFIPYCEKYRGRND
In the case of B1, the “pain response when injected in mice” value (mice) is given as “mediate the pain response” and the “effect on TRPV1 in vitro” value (TRPV1 [6]) is given as “activate TRPV1 in vitro”.

B2: APHC3 (peptide)
chain: GSICLEPKVVGPCTAYFPRFYFNSETGKCTPFIYGGCEGNGNNFETLRACRGICRA
B2 showed an inhibition of capsaicin (100 nM)-induced inward currents by 300 nM APHC3, whole-cell patch clamp on TRPV1-positive HEK-293 cells (n = 4) [7] of 25%.
